According to patent publication US20090215693A1, “METHODS FOR INCREASING HYALURONIC ACID LEVELS AND IMPROVING MOISTURE RETENTION IN TISSUE” (priority 2008, published 2009):

System: Fibroblasts
Test: Hyaluronic acid production by cultured fibroblasts (ELISA of culture medium)
Format: cell-based
Conditions: fibroblasts, 48 hours incubation, culture medium
Method: Fibroblasts were seeded into individual wells of a 12-well plate in 1.0 ml of Fibroblast Growth Media (FGM) and incubated overnight at 37±2° C. and 5±1% CO2. On the following day the media was removed via aspiration to eliminate non-adherent cells and replaced with 1.0 ml of fresh FGM. Cells were grown until confluent, with a media change every 48 to 72 hours. Upon reaching confluency the cells were treated for 24 hours with DMEM supplemented with 1.5% FBS to eliminate growth factors from the normal culture media. After this 24-hour wash-out period the cells were treated with the indicated test materials (i.e., milk-derived products containing lactoferrin) at the specified concentrations dissolved in FGM with 1.5% FBS. Dibutyrl cAMP (DBcAMP) at 0.1 mM was used as a positive control. Untreated cells (negative control) received FGM with 1.5% FBS. The cells were incubated for 48 hours and at the end of the incubation period cell culture medium was collected and either stored frozen (−75° C.) or assayed immediately. All testing was done in triplicate.
A series of hyaluronic acid standards from 50 ng/ml to 3,200 ng/ml was prepared. […] After incubation, 50 μl of stop solution was added to each well and the absorbance was measured at 405 nm using a plate reader. Hyaluronic acid production was expressed as ng/ml and results are shown in Table 1 and the graph of FIG. 1.

Structure (SMILES) | HA Measured (amount applied 0.1 mM (positive control)) [ng/mL] | HA Measured (amount applied 4 mM) [ng/mL]
CCCC(=O)Nc1ncnc2c1ncn2[C@@H]1O[C@@H]2COP(=O)(O)O[C@H]2[C@H]1OC(=O)CCC [DBcAMP, dibutyryl cyclic AMP] | 416 ± 24 | 
CCCC(=O)[O-].[Na+] [Sodium Butyrate] |  | 139 ± 6
